Paper PMC3997752, “Molecular characterization of Plasmodium falciparum uracil-DNA glycosylase and its potential as a new anti-malarial drug target” (Malaria Journal, 2014)

B1: UGI: UGI protein of B. subtilis bacteriophage PBS1 (New England BioLabs), a well-known UDG inhibitor (protein, UniProt P14739 1-84, looked up)
Uracil-DNA glycosylase …: MTNLSDIIEKETGKQLVIQESILMLPEEVEEVIGNKPESDILVHTAYDESTDENVMLLTSDAPEYKPWALVIQDSNGENKIKML

Columns and labels:
human UDG = test system: human UDG; design: method as in PMID 8391260; conditions: purified human HeLa UDG; cited from earlier work
[1] = Cytotoxicity test, MTT colorimetric assay; format: cell-based; conditions: human, HepG2 cells
Experimental: The uracil-derived compounds showing inhibitory effects on PfUDG were assayed for cytotoxicity to human hepatocyte carcinoma cell line ATCC HB 8665 (HepG2) by in vitro cytotoxicity test. The methylthiazol tetrazolium (MTT)-dye based colorimetric microtitration assay was used for detecting cell survival based on the metabolism of tetrazolium to formazan by viable cells. The OD of formazan was measured by a Molecular Devices Microplate Reader (Molecular Devices, CA, USA) at a wavelength of 570 nm. The OD570 represented the cell survival, and the percentage of cell survival at each compound concentration was determined by comparing with the OD570 of negative control lacking compounds. The dose–response curves of % cell survival, and compound concentrations and IC50 were obtained. IC50 representing the concentration of compounds providing 50% cell survival indicated the cytotoxicity of compounds.

recombinant PfUDG = recombinant PfUDG (Plasmodium falciparum, UniProt Q8ILU6, P157T); test: Inhibition of recombinant PfUDG activity (32P-labelled oligo-U glycosylase assay); format: biochemical; conditions: for Inhibitory effect of UGI on recombinant PfUDG: 1:1 molar ratio of PfUDG and UGI
Sequence of recombinant PfUDG (Q8ILU6 whole entry P157T): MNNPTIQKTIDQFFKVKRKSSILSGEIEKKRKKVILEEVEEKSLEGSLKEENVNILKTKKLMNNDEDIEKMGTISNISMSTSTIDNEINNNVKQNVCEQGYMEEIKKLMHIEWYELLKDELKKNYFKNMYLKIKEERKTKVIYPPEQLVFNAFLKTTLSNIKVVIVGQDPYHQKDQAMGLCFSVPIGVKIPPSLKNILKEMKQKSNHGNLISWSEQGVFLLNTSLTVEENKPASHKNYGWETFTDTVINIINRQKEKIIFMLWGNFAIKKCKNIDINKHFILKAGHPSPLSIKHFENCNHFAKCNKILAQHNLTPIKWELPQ
Experimental: (§1) The UDG activity assay (20 μl) consisted of standard reaction buffer containing 20 mM Tris–HCl pH 8.0, 1 mM DTT, 1 mM EDTA, 50 mM NaCl, 100 μg/ml BSA, 10 pmol ^32P-labelled oligo-U, and 20 ng of PfUDG at 37°C for 20 min. The glycosylase activity was stopped by heating at 100°C for 1 min, the resulting apurinic/apyrimidinic site (AP site) was incised by hot alkaline treatment with 0.1 M NaOH (final concentration) at 95°C for 10 min, and the reaction was neutralized with 0.1 M HCl (final concentration). The AP lyase activity assay of PfUDG was examined under the same condition as UDG activity assay except without hot alkaline treatment. Reaction products were analysed on 8 M urea-16% denaturing PAGE and exposed to X-ray film for autoradiography for visualization. The radioactive intensity of sliced substrate and product bands from the gel were measured in a 1450 MicroBeta® Trilux Liquid Scintillation Counter (Perkin Elmer) as counts per minute (cpm). The amounts of substrate and product (pmol) were determined from radioactive intensity. One unit of activity is defined as the amount of PfUDG required for releasing 1 pmol of uracil in 1 min at 37°C in standard reaction buffer (20 mM Tris–HCl pH 8.0, 50 mM NaCl, 1 mM EDTA, 1 mM DTT, and 100 μg/ml BSA) with ^32P-labelled single stranded oligo-U substrate.
Two types of UDG inhibitors, UGI protein and synthetic uracil-derived compounds, were tested for their inhibitory effects on PfUDG. UGI protein of B. subtilis bacteriophage PBS1 (New England BioLabs) was used against native and recombinant PfUDG with 10 pmol ^32P-labelled single stranded oligo-U in the standard reaction buffer at 37°C for 20 min. The synthetic uracil-derived compounds were also used at various concentrations (5–640 μM) with 20 ng of recombinant PfUDG and 10 pmol ^32P-labelled single stranded oligo-U in the standard reaction buffer at 37°C for 20 min. The same 0.4% (v/v final concentration) of DMSO was used as solvent control to determine its effects on enzyme activity. The dose–response curves of relative activities of PfUDG and various compound concentrations were generated, and half-maximal inhibitory concentration (IC50), the concentration of compound to inhibit enzyme activity by 50%, was obtained using SigmaPlot 12.0.

P. falciparum K1 strain = test: Inhibition of parasite growth in vitro, SYBR Green I based assay; format: cell-based; conditions: Plasmodium falciparum, synchronized ring stage K1 strain
Experimental: The synchronized ring stage of P. falciparum K1 strain was prepared from mixed stage parasite culture by 5% D-sorbitol treatment. The ring stage parasite was then mixed with culture medium containing RPMI 1640 supplemented with 10% human serum. Various concentrations of each uracil-derived compound were tested at 2-fold serial dilutions in triplicate. Their inhibitory effects on parasite growth were determined by SYBR Green I based assay. The fluorescent intensity was measured by Varioskan Flash Multimode Reader (Thermo Scientific, Vantaa, Finland) with excitation and emission wavelengths of 485 and 535 nm, respectively. The percentage of fluorescent intensity at each compound concentration compared with negative control was indicative of the parasite growth. The dose–response curves of fluorescent intensity and compound concentrations were generated, and IC50, the concentration of compound to inhibit parasite growth by 50%, was obtained using SigmaPlot 12.0.

HSV-1 UDG = test system: HSV-1 UDG; design: method as in PMID 8391260; conditions: HSV-1 UDG purified from HSV-1-infected HeLa cells; cited from earlier work
native PfUDG = test: Inhibition of native PfUDG activity by UGI (32P-labelled oligo-U glycosylase assay); format: biochemical, Plasmodium falciparum; conditions: 1:1 molar ratio of PfUDG and UGI
Experimental: as §1, with “substrate. […]” for “substrate.”

[2] = listed as uracil glycosylase inhibitor protein

| Molecule | IC50 (recombinant PfUDG) | IC50 (P. falciparum K1 strain) | IC50 (HSV-1 UDG) | further results |
| --- | --- | --- | --- | --- |
| CCCCCCCCc1ccc(Nc2cc(=O)[nH]c(=O)[nH]2)cc1 [6-(4-n-octylanilino)uracil, 6-(4-n-Octylanilino)uracil] |  |  |  | IC50 (human UDG): > 300 µM |
| O=c1cc(NNc2ccccc2)[nH]c(=O)[nH]1 [compound 2, 6-(Phenylhydrazino)uracil] | 77.5 µM | 12.8 µM |  | IC50 [1]: 27.5 ± 4.58 µM |
| CCCCCCCc1ccc(Nc2cc(=O)[nH]c(=O)[nH]2)cc1 [compound 3, 6-(p-n-Heptylanilino)uracil] | > 400 µM | 5 µM | 20 µM |  |
| Cc1ccc(Nc2cc(=O)[nH]c(=O)[nH]2)cc1 [compound 4, 6-(4-Methylanilino)uracil] | > 400 µM | 7.1 µM |  |  |
| CCCc1ccc(Nc2cc(=O)[nH]c(=O)[nH]2)cc1 [compound 5, 6-(p-n-Propylanilino)uracil] | > 400 µM | 7.9 µM |  |  |
| O=c1cc[nH]c(=O)[nH]1 [compound 6, Uracil] | > 400 µM | 10 µM |  |  |
| CCCCc1ccc(Nc2cc(=O)[nH]c(=O)[nH]2)cc1 [compound 7, 6-(p-n-Butylanilino)uracil] | > 400 µM | 10 µM | 150 µM |  |
| CCc1cc(Nc2cc(=O)n(CCCCO)c(=O)[nH]2)ccc1C [compound 8, 3-(4-Hydroxybutyl)-6-(3-ethyl-4-methylanilino)uracil] | > 400 µM | 10.2 µM |  |  |
| CCCCCc1ccc(Nc2cc(=O)[nH]c(=O)[nH]2)cc1 [compound 9, 6-(p-n-Pentylanilino)uracil] | > 400 µM | 10.5 µM | 30 µM |  |
| CC(C)CCc1ccc(Nc2cc(=O)[nH]c(=O)[nH]2)cc1 [compound 10, 6-(p-i-Pentylanilino)uracil] | > 400 µM | 11 µM | 140 µM |  |
| CC(C)c1ccc(Nc2cc(O)nc(O)n2)cc1 [compound 11, 6-(p-i-Propylanilino)uracil] | > 400 µM | 12.6 µM |  |  |
| CC(C)Cc1ccc(Nc2cc(=O)[nH]c(=O)[nH]2)cc1 [compound 12, 6-(p-i-Butylanilino)uracil] | > 400 µM | 16.5 µM |  |  |
| B1 |  |  |  | Inhibitory effect of UGI on recombinant PfUDG (recombinant PfUDG): completely inhibited; Inhibitory effect of UGI on recombinant PfUDG (recombinant PfUDG; [2]): inhibited; Inhibitory effect of UGI on native PfUDG (native PfUDG): completely inhibited; Inhibitory effect of UGI on native PfUDG (native PfUDG; [2]): inhibited |
